Data taken from the supplement of paper PMC10307832.

How the values were obtained:
Test in all cases: relative viability (nuclei count vs DMSO), 5 days (fraction); higher = more cells survive
[1] = compound: C(C(=O)C(=O)O)Br [Bromopyruvate] + Nc1nc2[nH]cc(CCc3ccc(C(=O)N[C@@H](CCC(=O)O)C(=O)O)cc3)c2c(=O)[nH]1 [Pemetrexed] (partner 0.2 µM)
Procedure, shortened: (§1)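 Nuclei were stained with Hoechst during a one-step fixation (final 0.05% Triton X-100, 1% formaldehyde, 1 ug/ml Hoechst) carried out 5 days after dosing, then counted on 4× images. The cells, lung cancer lines in 1536-well plates, had been dosed by pin tool the day after seeding with one drug alone or a fixed anchor-drug dose plus five library-drug doses (not always all listed) in √10 steps. Relative viability is the nuclei count in treated wells divided by that in vehicle wells, and each value is the median of duplicate plates.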

Bicalutamide + OSI-027 = compound: CC(O)(CS(=O)(=O)c1ccc(F)cc1)C(=O)Nc1ccc(C#N)c(C(F)(F)F)c1 [Bicalutamide] + COc1cccc2cc(-c3nc([C@H]4CC[C@H](C(=O)O)CC4)n4ncnc(N)c34)[nH]c12 [OSI-027] (partner 0.5 µM)
Procedure, shortened: as §1

[2] = compound: CC(O)(CS(=O)(=O)c1ccc(F)cc1)C(=O)Nc1ccc(C#N)c(C(F)(F)F)c1 [Bicalutamide] + Nc1ncn([C@H]2C[C@H](O)[C@@H](CO)O2)c(=O)n1 [Decitabine] (partner 2 µM)
Procedure, shortened: as §1

Bicalutamide + Olaparib = compound: CC(O)(CS(=O)(=O)c1ccc(F)cc1)C(=O)Nc1ccc(C#N)c(C(F)(F)F)c1 [Bicalutamide] + O=C(c1cc(Cc2n[nH]c(=O)c3ccccc23)ccc1F)N1CCN(C(=O)C2CC2)CC1 [Olaparib] (partner 8 µM)
Procedure, shortened: as §1

NCI-H2170 showed a relative viability ([1]; first compound 1 µM) of 0.277, a relative viability ([1]; first compound 3.162 µM) of 0.27 and a relative viability ([1]; first compound 10 µM) of 0.249. For the same cell line, the relative viability ([1]; first compound 31.62 µM) was 0.258, the relative viability ([1]; first compound 100 µM) was 0.626 and the relative viability (Bicalutamide + OSI-027; first compound 0.08 µM) was 0.765. The relative viability (Bicalutamide + OSI-027; first compound 0.253 µM) was 0.636, the relative viability (Bicalutamide + OSI-027; first compound 0.8 µM) was 0.668 and the relative viability (Bicalutamide + OSI-027; first compound 2.53 µM) was 0.705. It also gave a relative viability ([2]; first compound 0.08 µM) of 0.442, a relative viability ([2]; first compound 0.253 µM) of 0.441 and a relative viability ([2]; first compound 0.8 µM) of 0.515. It also gave a relative viability ([2]; first compound 2.53 µM) of 0.496, a relative viability (Bicalutamide + Olaparib; first compound 0.08 µM) of 0.612 and a relative viability (Bicalutamide + Olaparib; first compound 0.253 µM) of 0.572. For the same cell line, the relative viability (Bicalutamide + Olaparib; first compound 0.8 µM) was 0.536 and the relative viability (Bicalutamide + Olaparib; first compound 2.53 µM) was 0.645.

Cell Line NCI-H2087 has a relative viability ([1]; first compound 1 µM) of 0.658, a relative viability ([1]; first compound 3.162 µM) of 0.745 and a relative viability ([1]; first compound 10 µM) of 0.651. The relative viability ([1]; first compound 31.62 µM) was 0.72, the relative viability ([1]; first compound 100 µM) was 0.567 and the relative viability (Bicalutamide + OSI-027; first compound 0.08 µM) was 0.598. The relative viability (Bicalutamide + OSI-027; first compound 0.253 µM) was 0.512, the relative viability (Bicalutamide + OSI-027; first compound 0.8 µM) was 0.579 and the relative viability (Bicalutamide + OSI-027; first compound 2.53 µM) was 0.572. It also gave a relative viability ([2]; first compound 0.08 µM) of 0.295, a relative viability ([2]; first compound 0.253 µM) of 0.237 and a relative viability ([2]; first compound 0.8 µM) of 0.302. For the same cell line, the relative viability ([2]; first compound 2.53 µM) was 0.286, the relative viability (Bicalutamide + Olaparib; first compound 0.08 µM) was 0.527 and the relative viability (Bicalutamide + Olaparib; first compound 0.253 µM) was 0.51. The relative viability (Bicalutamide + Olaparib; first compound 0.8 µM) was 0.75 and the relative viability (Bicalutamide + Olaparib; first compound 2.53 µM) was 0.572.

In the case of NCI-H838, the relative viability ([1]; first compound 1 µM) was 0.244, the relative viability ([1]; first compound 3.162 µM) was 0.274 and the relative viability ([1]; first compound 10 µM) was 0.242. The relative viability ([1]; first compound 31.62 µM) was 0.232, the relative viability ([1]; first compound 100 µM) was 0.245 and the relative viability (Bicalutamide + OSI-027; first compound 0.08 µM) was 0.435. For the same cell line, the relative viability (Bicalutamide + OSI-027; first compound 0.253 µM) was 0.333, the relative viability (Bicalutamide + OSI-027; first compound 0.8 µM) was 0.449 and the relative viability (Bicalutamide + OSI-027; first compound 2.53 µM) was 0.36. The relative viability ([2]; first compound 0.08 µM) was 0.484, the relative viability ([2]; first compound 0.253 µM) was 0.461 and the relative viability ([2]; first compound 0.8 µM) was 0.508. It also gave a relative viability ([2]; first compound 2.53 µM) of 0.371, a relative viability (Bicalutamide + Olaparib; first compound 0.08 µM) of 0.777 and a relative viability (Bicalutamide + Olaparib; first compound 0.253 µM) of 0.778. It also gave a relative viability (Bicalutamide + Olaparib; first compound 0.8 µM) of 0.733 and a relative viability (Bicalutamide + Olaparib; first compound 2.53 µM) of 0.522.

NCI-H460 was tested, and the relative viability ([1]; first compound 1 µM) was 0.0598, the relative viability ([1]; first compound 3.162 µM) was 0.078 and the relative viability ([1]; first compound 10 µM) was 0.0595. The relative viability ([1]; first compound 31.62 µM) was 0.0647, the relative viability ([1]; first compound 100 µM) was 0.0655 and the relative viability (Bicalutamide + OSI-027; first compound 0.08 µM) was 0.772. For the same cell line, the relative viability (Bicalutamide + OSI-027; first compound 0.253 µM) was 0.601, the relative viability (Bicalutamide + OSI-027; first compound 0.8 µM) was 1.04 and the relative viability (Bicalutamide + OSI-027; first compound 2.53 µM) was 0.545. For the same cell line, the relative viability ([2]; first compound 0.08 µM) was 0.55, the relative viability ([2]; first compound 0.253 µM) was 0.468 and the relative viability ([2]; first compound 0.8 µM) was 0.598. It also gave a relative viability ([2]; first compound 2.53 µM) of 0.484, a relative viability (Bicalutamide + Olaparib; first compound 0.08 µM) of 0.439 and a relative viability (Bicalutamide + Olaparib; first compound 0.253 µM) of 0.391. It also gave a relative viability (Bicalutamide + Olaparib; first compound 0.8 µM) of 0.436 and a relative viability (Bicalutamide + Olaparib; first compound 2.53 µM) of 0.383.

LOU-NH91 showed a relative viability ([1]; first compound 1 µM) of 0.402, a relative viability ([1]; first compound 3.162 µM) of 0.371 and a relative viability ([1]; first compound 10 µM) of 0.366. It also gave a relative viability ([1]; first compound 31.62 µM) of 0.402, a relative viability ([1]; first compound 100 µM) of 0.443 and a relative viability (Bicalutamide + OSI-027; first compound 0.08 µM) of 0.768. It also gave a relative viability (Bicalutamide + OSI-027; first compound 0.253 µM) of 0.659, a relative viability (Bicalutamide + OSI-027; first compound 0.8 µM) of 0.736 and a relative viability (Bicalutamide + OSI-027; first compound 2.53 µM) of 0.726. The relative viability ([2]; first compound 0.08 µM) was 0.769, the relative viability ([2]; first compound 0.253 µM) was 0.817 and the relative viability ([2]; first compound 0.8 µM) was 0.83. The relative viability ([2]; first compound 2.53 µM) was 0.836, the relative viability (Bicalutamide + Olaparib; first compound 0.08 µM) was 0.899 and the relative viability (Bicalutamide + Olaparib; first compound 0.253 µM) was 0.847. It also gave a relative viability (Bicalutamide + Olaparib; first compound 0.8 µM) of 0.976 and a relative viability (Bicalutamide + Olaparib; first compound 2.53 µM) of 0.955.

For NCI-H322M, the relative viability ([1]; first compound 1 µM) was 0.614, the relative viability ([1]; first compound 3.162 µM) was 0.663 and the relative viability ([1]; first compound 10 µM) was 0.592. The relative viability ([1]; first compound 31.62 µM) was 0.585, the relative viability ([1]; first compound 100 µM) was 0.637 and the relative viability (Bicalutamide + OSI-027; first compound 0.08 µM) was 0.6. For the same cell line, the relative viability (Bicalutamide + OSI-027; first compound 0.253 µM) was 0.524, the relative viability (Bicalutamide + OSI-027; first compound 0.8 µM) was 0.568 and the relative viability (Bicalutamide + OSI-027; first compound 2.53 µM) was 0.474. For the same cell line, the relative viability ([2]; first compound 0.08 µM) was 0.656, the relative viability ([2]; first compound 0.253 µM) was 0.494 and the relative viability ([2]; first compound 0.8 µM) was 0.649. The relative viability ([2]; first compound 2.53 µM) was 0.735, the relative viability (Bicalutamide + Olaparib; first compound 0.08 µM) was 0.851 and the relative viability (Bicalutamide + Olaparib; first compound 0.253 µM) was 0.741. The relative viability (Bicalutamide + Olaparib; first compound 0.8 µM) was 0.789 and the relative viability (Bicalutamide + Olaparib; first compound 2.53 µM) was 0.768.

In the case of NCI-H520, the relative viability ([1]; first compound 1 µM) was 0.64, the relative viability ([1]; first compound 3.162 µM) was 0.713 and the relative viability ([1]; first compound 10 µM) was 0.691. For the same cell line, the relative viability ([1]; first compound 31.62 µM) was 0.598, the relative viability ([1]; first compound 100 µM) was 0.629 and the relative viability (Bicalutamide + OSI-027; first compound 0.08 µM) was 0.237. It also gave a relative viability (Bicalutamide + OSI-027; first compound 0.253 µM) of 0.228, a relative viability (Bicalutamide + OSI-027; first compound 0.8 µM) of 0.373 and a relative viability (Bicalutamide + OSI-027; first compound 2.53 µM) of 0.251. For the same cell line, the relative viability ([2]; first compound 0.08 µM) was 0.576, the relative viability ([2]; first compound 0.253 µM) was 0.52 and the relative viability ([2]; first compound 0.8 µM) was 0.646. The relative viability ([2]; first compound 2.53 µM) was 0.51, the relative viability (Bicalutamide + Olaparib; first compound 0.08 µM) was 0.342 and the relative viability (Bicalutamide + Olaparib; first compound 0.253 µM) was 0.31. It also gave a relative viability (Bicalutamide + Olaparib; first compound 0.8 µM) of 0.335 and a relative viability (Bicalutamide + Olaparib; first compound 2.53 µM) of 0.337.

For NCI-H661, the relative viability ([1]; first compound 1 µM) was 0.905, the relative viability ([1]; first compound 3.162 µM) was 0.944 and the relative viability ([1]; first compound 10 µM) was 0.985. The relative viability ([1]; first compound 31.62 µM) was 0.889, the relative viability ([1]; first compound 100 µM) was 0.907 and the relative viability (Bicalutamide + OSI-027; first compound 0.08 µM) was 0.719. The relative viability (Bicalutamide + OSI-027; first compound 0.253 µM) was 0.691, the relative viability (Bicalutamide + OSI-027; first compound 0.8 µM) was 0.839 and the relative viability (Bicalutamide + OSI-027; first compound 2.53 µM) was 0.699. For the same cell line, the relative viability ([2]; first compound 0.08 µM) was 0.546, the relative viability ([2]; first compound 0.253 µM) was 0.51 and the relative viability ([2]; first compound 0.8 µM) was 0.557. The relative viability ([2]; first compound 2.53 µM) was 0.549, the relative viability (Bicalutamide + Olaparib; first compound 0.08 µM) was 0.815 and the relative viability (Bicalutamide + Olaparib; first compound 0.253 µM) was 0.768. It also gave a relative viability (Bicalutamide + Olaparib; first compound 0.8 µM) of 0.74 and a relative viability (Bicalutamide + Olaparib; first compound 2.53 µM) of 0.779.

NCI-H1793 was tested, and the relative viability ([1]; first compound 1 µM) was 0.91, the relative viability ([1]; first compound 3.162 µM) was 1.18 and the relative viability ([1]; first compound 10 µM) was 0.989. It also gave a relative viability ([1]; first compound 31.62 µM) of 0.906, a relative viability ([1]; first compound 100 µM) of 1.16 and a relative viability (Bicalutamide + OSI-027; first compound 0.08 µM) of 0.278. For the same cell line, the relative viability (Bicalutamide + OSI-027; first compound 0.253 µM) was 0.238, the relative viability (Bicalutamide + OSI-027; first compound 0.8 µM) was 0.302 and the relative viability (Bicalutamide + OSI-027; first compound 2.53 µM) was 0.269. The relative viability ([2]; first compound 0.08 µM) was 0.524, the relative viability ([2]; first compound 0.8 µM) was 0.574 and the relative viability ([2]; first compound 2.53 µM) was 0.423. It also gave a relative viability (Bicalutamide + Olaparib; first compound 0.08 µM) of 0.799, a relative viability (Bicalutamide + Olaparib; first compound 0.8 µM) of 1.38 and a relative viability (Bicalutamide + Olaparib; first compound 2.53 µM) of 0.744.
